Data set [1] is described as follows: acute toxicity (tolerance) i.p. in mice, Weil method. The conditions noted are these: mouse, in vivo, ip, Weil method (N = 5, K = 4). The text has this:
The tolerance of the Acyl-carnitines of the formula (I), as well as their salts administered by intraperitoneal route was investigated in mice using the Weil Method (1).
LD50, mg kg^-1 i.p. in mice,
of some acyl derivatives of formula (1).
Weil method (N = 5, K = 4)

A further data set relates to rat's ventricle strip. Kind of data set: antiarrhythmic effect, isolated rat ventricle strip test. The note with it: for inhibition at 1 µM / activation at 1 µM: Rattus norvegicus, concentration 1·10^-6 M; for inhibition at 1 µM: decrease; for activation at 1 µM: increase; for antiarrhythmic properties (in words): isolated rat ventricle method. The source says: (2) M. Libonati and G. Segre, Archivio Italiano di Scienze Farmacologiche. Serie XIII, Vol. X, pag. 3, (1960)
effect of some acyl derivatives (concentration 1 · 10^-6
of the formula (1) on the rat's ventricle strip test.
% variation versus basal value.

In data set [2] the test system is arrhythmia induced by Aconitine in mice. The experiment in a line: arrhythmia induced by Aconitine in mice. Type of data set: in vivo. The note with it: for change in vivo at 40 mg/kg / change in vivo at 150 mg/kg: Mus musculus, iv; for antiarrhythmic activity (in words): Aconitine, mice. The protocol: The antiarrhythmic effect of the compounds was also investigated in mice according to the P. W. Nwangwu, T. Holcslow procedure (4). Using Aconitine (5 mg/ml) as arrhythmogenic agent, the changes in the cardiac rhythm of the animals were recorded and the onset time of initial arrhythmia and/or of ventricular tachycardia were used as End point.
Antiarrhythmic agents display an increase in the latency time of initial ECG change.
(4) P. W. Nvangvu, T. L. Holcslow, Arch. Int. Pharmacodyn. 229, 219 (1977)
on the arrhythmia induced by Aconitine (5 γ/ml) in mice.
% increase of the time to onset of initial cardiac arrythmia

The test system of another data set is F.F.A. plasma levels. The experiment in a line: plasma free fatty acids in 17-hrs fasted rats. Format: in vivo. The conditions noted are these: single i.p. 500 mg kg^-1, 17-hrs fasted rats. As to the method: In 17-hrs fasted rats the F.F.A. (fatty-free acids) splasms levels were reduced by a single i.p. administration with 500 mg kg^-s of d,l dipropyl ACAR; l dipropyl ACAR (ACAR=acetylcarnitine); d,l exanoyl CAR (CAR=carnitine) and d,l pyruvyl CAR.
The decrease, compared with untreated animals, was -35%, -29%, -41% and -65% respectively.

In a further data set the test system is rabbit hearts. The experiment in a line: cardiokinetic effect on isolated rabbit heart (Langendorff) after anoxia. The conditions noted are these: equal concentrations in perfusion fluid, Student's t test versus controls. The protocol:
The cardiokinetic effect on isolated heart was also investigated as follows. Rabbit hearts isolated by the Langendorff method were perfused with oxygenized ringer solution at 38.2° C. The isometric contractions, electrocardiogram and coronary flow were recorded using a "Battaglia-Rangoni" polygraph. By removing the oxygen from the perfusion fluid, metabolic damage was induced in the cardiac muscle, up to an 80% reduction in the cardiac contractile force.
Under these conditions of prolonged anoxia the aerobic glycolysis of the myocardium is slowed down, accompanied by the storage of acid catabolites due to both the accumulation of pyruvic acid and its conversion to lactic acid which cannot be utilized because of the depression of pyridine enzymes, such as LDH (lactodehydrogenase). This has repercussions on the anaerobic glycolysis affecting an ever increasing number of enzymes, accompanied by a progressive and increasingly critical exhaustion of the myocardium. Thus a whole series of cardiac muscle fatigue levels occurs which can be observed by the behavior of the examined parameters, namely the contractile force, coronary flow, heart rate and cardiac rhythm. As soon as the contractile force was reduced by 80%, the perfusion fluid was once again oxygenized either without adding other compounds (controls) or with the addition of the compounds under examination.
Table 2 below gives the percentage values of the contractile force of the heart, showing a positive inotropic effect, calculated after 10 minutes from the interruption of the anoxic period (myocardial restoration).
of some acyl derivatives of formula (I) on the contractile
force of rabbit's heart. (Details are given in the text)

For data set [3], the system named is plasma cholesterol, triglycerides and lipoproteins in rat. Kind of data set: plasma cholesterol, triglycerides and lipoproteins in rat treated with olive oil. The conditions noted are these: for Lipoproteins, VLDL / Lipoproteins, HDL / Lipoproteins, LDL / cholesterol / triglycerides: olive oil 15 ml kg^-1 orally, compound ip, mean ± SEM, N = 8; for Lipoproteins, VLDL: oil control 15.84 ± 1.53; for Lipoproteins, HDL: oil control 24.18 ± 2.15; for Lipoproteins, LDL: oil control 57.38 ± 2.25; for cholesterol: oil control 88.33 ± 2.96; for triglycerides: oil control 213.66 ± 28.68. Type of data set: in vivo. The protocol:
In the rats the lipoproteic pattern altered due to an oil administration by gavage, was restored after a single treatment with d,l dipropyl ACAR; d,l ethyl exanoyl CAR; d,l 3 bromopropionyl CAR and d,l pyruvyl CAR.
The effect of some acyl derivatives of formula (I) on plasma cholesterol,
triglycerides and lipoproteins in rat
treated with olive oil, 15 ml kg^-1 orally. Mean Values ± SEM
Student "t" test .quadrature., Δ and indicate respectively a non
significant difference, a P ≤ 1% and 1%.

Where [4] appears, read: read-out: maximed frequency (- %), % variation versus basal value.
[5] abbreviates: read-out: whole excitability (- %), % variation versus basal value.
Where [6] appears, read: read-out: refractory period (+ %), % variation versus basal value.
Setting [7] is: read-out: rheobase (+ %), % variation versus basal value.
The mark [8] stands for this setting: read-out: latency time increase % of controls, arrhythmias.
Setting [9] is: read-out: latency time increase % of controls, tachycardia.

Read-outs that look alike come from different tables or passages of the source.

On to `CCCC(CCC)C(=O)O[C@H](CC(=O)[O-])C[N+](C)(C)C` [l dipropyl ACAR], for which the LD50 in data set [1] turned out to be 294 mg/kg. The figures for the inhibition at 1 µM with rat's ventricle strip (setting [4]) and in the data set with rat's ventricle strip (setting [5]) were 25.3% and 58.2%, respectively. Moreover, the activation at 1 µM worked out at 39.1% in the data set with rat's ventricle strip (setting [6]) and 55.1% with rat's ventricle strip (setting [7]). For the same compound, the change in vivo at 40 mg/kg in data set [2] (setting [8]) was 60%; in data set [2] (setting [9]) it was 40%. The “decrease of F.F.A. plasma levels compared with untreated animals” value (from here on “decrease of F.F.A. plasma levels”) in the data set on F.F.A. plasma levels is listed as -29%.
As to `CCCC(CCC)C(=O)OC(CC(=O)[O-])C[N+](C)(C)C` (stereo not drawn) [dipropyl acetyl], the “positive inotropic effect (in words)” value in the data set on rabbit hearts was “greater positive inotropic effect than that of the other compounds under examination”. In addition, in the data set with rat's ventricle strip, the “antiarrhythmic properties (in words)” value is “most clear out antiarrhythmic properties”. In data set [2], the “antiarrhythmic activity (in words)” value is given as “markedly exhibited”.
On to `C[N+](C)(C)CC(CC(=O)[O-])OC(=O)C=Cc1ccccc1` (racemic) [d,l cinnamoyl CAR], for which the LD50 in data set [1] was 1120 mg/kg. Besides, in the data set with rabbit hearts, the “positive inotropic effect (in words)” value is “greater positive inotropic effect than that of the other compounds under examination”. Besides, the inhibition at 1 µM was found to be 29.8% in the data set on rat's ventricle strip (setting [4]) and 75.3% in the data set with rat's ventricle strip (setting [5]). In addition, the values for the activation at 1 µM with rat's ventricle strip (setting [6]) and with rat's ventricle strip (setting [7]) were 40.1% and 49.6%, respectively. Moreover, the change in vivo at 150 mg/kg in data set [2] (setting [8]) came out at 20%; in data set [2] (setting [9]), 8%.
In the case of `CCCCCC(=O)OC(CC(=O)[O-])C[N+](C)(C)C` (stereo not drawn) [d,l exanoyl CAR], the “decrease of F.F.A. plasma levels” value with F.F.A. plasma levels was -41%.
With `C[N+](C)(C)CC(CC(=O)[O-])OC(=O)CCBr` (racemic) [d,l 3-Br--propionyl CAR], the LD50 in data set [1] came out at 950 mg/kg. For the same compound, in the data set with rat's ventricle strip (setting [4]), the inhibition at 1 µM worked out at 17.3%. Further, the inhibition at 1 µM in the data set with rat's ventricle strip (setting [5]) was determined as 39.7%. Further, the activation at 1 µM in the data set on rat's ventricle strip (setting [6]) was determined as 40.2%. In addition, the activation at 1 µM with rat's ventricle strip (setting [7]) was 26.1%. Besides, the change in vivo at 150 mg/kg in data set [2] (setting [8]) was 20%. Also, the change in vivo at 150 mg/kg in data set [2] (setting [9]) worked out at 10%. In data set [3], the “Lipoproteins, VLDL” value turned out to be 11.22 ± 1.22%; the “Lipoproteins, HDL” value worked out at 30.45 ± 2.87%; the “Lipoproteins, LDL” value is 51.26 ± 2.49%; the cholesterol is on record as 76.18 ± 3.02 mg/100 ml. In addition, the triglycerides in data set [3] worked out at 123.48 ± 12.16 mg/100 ml. Also, in data set [3] (rats, single treatment), the “lipoproteic pattern altered due to oil administration (in words)” value (“lipoproteic pattern altered due” below) is listed as “restored”.
For `C[N+](C)(C)CC(CC(=O)[O-])OC(=O)CCBr` (stereo not drawn) [bromopropionyl], the “positive inotropic effect (in words)” value with rabbit hearts is on record as “greater positive inotropic effect than that of the other compounds under examination”.
With `CC(C)(C)C(=O)OC(CC(=O)[O-])C[N+](C)(C)C` (stereo not drawn) [pivaloyl], the “positive inotropic effect (in words)” value in the data set with rabbit hearts is “greater positive inotropic effect than that of the other compounds under examination”. Besides, the “antiarrhythmic properties (in words)” value with rat's ventricle strip is “most clear out antiarrhythmic properties”.
In data set [1], `CCCC(CCC)C(=O)OC(CC(=O)[O-])C[N+](C)(C)C` (racemic) [d,l dipropyl ACAR] returned an LD50 of 1700 mg/kg. For the same compound, in the data set on rat's ventricle strip (setting [4]), the inhibition at 1 µM was found to be 23.2%. Besides, the inhibition at 1 µM in the data set on rat's ventricle strip (setting [5]) stood at 50.6%. Further, the activation at 1 µM in the data set on rat's ventricle strip (setting [6]) stood at 34.3%. Besides, the activation at 1 µM in the data set with rat's ventricle strip (setting [7]) was determined as 24.2%. Besides, in data set [2] (setting [8]), the change in vivo at 150 mg/kg was found to be 65%. For the same compound, the change in vivo at 150 mg/kg in data set [2] (setting [9]) worked out at 55%. The “decrease of F.F.A. plasma levels” value with F.F.A. plasma levels is -35%. In data set [3], the “Lipoproteins, VLDL” value was found to be 13.26 ± 2.03%; the “Lipoproteins, HDL” value was determined as 28.13 ± 3.27%; the “Lipoproteins, LDL” value is 50.12 ± 2.08%; the cholesterol turned out to be 75.15 ± 3.11 mg/100 ml. Also, in data set [3], the triglycerides is 121.50 ± 11.13 mg/100 ml. The “lipoproteic pattern altered due” value in data set [3] (rats, single treatment) is reported as “restored”.
For the compound `CC(=O)C(=O)OC(CC(=O)[O-])C[N+](C)(C)C` (racemic) [d,l pyruvyl CAR], the LD50 in data set [1] was found to be 3900 mg/kg. For the same compound, the “positive inotropic effect (in words)” value in the data set with rabbit hearts is given as “greater positive inotropic effect than that of the other compounds under examination”. Besides, in the data set with rat's ventricle strip (setting [4]), the inhibition at 1 µM was 80.2%. Moreover, the inhibition at 1 µM in the data set on rat's ventricle strip (setting [5]) was 95.5%. For the same compound, in the data set on rat's ventricle strip (setting [6]), the activation at 1 µM turned out to be 50.2%. The activation at 1 µM with rat's ventricle strip (setting [7]) stood at 48.2%. Also, the “antiarrhythmic properties (in words)” value with rat's ventricle strip is listed as “most clear out antiarrhythmic properties”. Moreover, the “antiarrhythmic activity (in words)” value in data set [2] was “markedly exhibited”. For the same compound, the change in vivo at 40 mg/kg in data set [2] (setting [8]) worked out at 80%. For the same compound, the change in vivo at 40 mg/kg in data set [2] (setting [9]) was found to be 60%. In the data set with F.F.A. plasma levels, the “decrease of F.F.A. plasma levels” value is listed as -65%. In addition, in data set [3], the “Lipoproteins, VLDL” value worked out at 10.15 ± 1.03%; the “Lipoproteins, HDL” value was 33.26 ± 2.17%; the “Lipoproteins, LDL” value is reported as 50.15 ± 2.33%; the cholesterol stood at 70.26 ± 2.74 mg/100 ml. Further, the triglycerides in data set [3] is reported as 85.14 ± 7.22 mg/100 ml. For the same compound, in data set [3] (rats, single treatment), the “increase of HDL and decrease of LDL and VLDL (in words)” value is listed as “most marked effect”; the “lipoproteic pattern altered due” value is recorded as “restored”; the “triglycerides and cholesterol plasma levels increased after oil (in words)” value is “active against the triglycerides and cholesterol plasma levels”.

Broadly, the LD50 is the dose at which mortality reaches 50%. Higher therefore signals lower toxicity.
